# Assay results reported in patent US20260240865A1, “HARNESSING IKZF:BETA-CATENIN COMPLEXES IN THE TREATMENT OF LYMPHOCYTE ASSOCIATED DISEASES OR CONDITIONS” (Yale University, priority 2022, published 2026).
# T1: Stat5, mouse (mouse, UniProt Q9JIA0 1-793)
# T1 sequence: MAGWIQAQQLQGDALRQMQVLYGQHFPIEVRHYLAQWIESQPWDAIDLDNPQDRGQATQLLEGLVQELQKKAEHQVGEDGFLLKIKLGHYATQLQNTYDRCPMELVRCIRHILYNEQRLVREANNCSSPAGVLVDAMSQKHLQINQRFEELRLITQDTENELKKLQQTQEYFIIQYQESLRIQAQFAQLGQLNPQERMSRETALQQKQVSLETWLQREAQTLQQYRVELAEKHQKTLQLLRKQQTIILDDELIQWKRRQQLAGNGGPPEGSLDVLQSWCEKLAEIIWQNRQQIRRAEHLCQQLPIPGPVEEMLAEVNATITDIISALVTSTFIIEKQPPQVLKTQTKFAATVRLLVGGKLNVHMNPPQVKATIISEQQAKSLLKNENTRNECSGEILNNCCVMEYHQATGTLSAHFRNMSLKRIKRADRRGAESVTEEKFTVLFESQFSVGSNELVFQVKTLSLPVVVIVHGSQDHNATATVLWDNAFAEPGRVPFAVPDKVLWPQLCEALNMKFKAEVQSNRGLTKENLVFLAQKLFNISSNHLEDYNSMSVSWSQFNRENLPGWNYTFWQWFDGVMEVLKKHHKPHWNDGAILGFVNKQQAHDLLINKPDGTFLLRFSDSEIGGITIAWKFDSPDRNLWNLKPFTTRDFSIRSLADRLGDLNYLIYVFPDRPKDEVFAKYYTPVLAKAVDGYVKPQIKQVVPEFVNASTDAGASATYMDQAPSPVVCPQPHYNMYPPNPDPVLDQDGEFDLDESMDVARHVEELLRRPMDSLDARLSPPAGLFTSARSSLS
# Experiments:
# [1] = tested on: B-lymphoid leukemia and lymphoma cells; test: Cell viability assay (Cell Titer Glo 2.0) with GSK3β inhibitors; type: cell-based, human; conditions: B-lymphoid vs myeloid and epithelial cells (PDX2, BV173, LAX2 vs THP1, SW620, H82); 3 days
# Protocol: Forty thousand patient-derived pre-B ALL cells or twenty thousand leukemia/lymphoma cell lines or ten thousand colon/lung cancer cells were seed in a volume of 80 μl in complete growth medium on 96-well plate. GSK3β3 inhibitors were added at the indicated concentration in a total volume of 100 μl. After treatment for 3 days, Cell Titer Glo 2.0 assays (Promega) were performed according to the manufacturer's instructions. Relative viability was calculated by measuring the luminescence value and normalizing it to baseline values of untreated cells.
# Data are shown as mean±s.d. unless stated. Statistical analysis was performed by GraphPad Prism 7 (GraphPad Software Inc.) using unpaired two-tailed t test or log-rank test as indicated in figure legends. Significance was considered at P<0.05. Kaplan-Meier survival analysis was used to estimate OS with GraphPad Prism 7. The investigators were not blinded to allocation during experiments and outcome assessment. Experiments were repeated to ensure reproducibility of the observations.
# [2] = tested on: β-catenin and MYC protein levels in B-ALL cells; test: Western blot of β-catenin and MYC after GSK3β inhibitor treatment; type: cell-based, human; conditions: for β-catenin accumulation and MYC suppression: B-ALL (PDX2) cells, 16 hours, FIGS. 7A, 7C, 18C
# Protocol: Cells were washed twice with ice-cold PBS and were lysed in CelLytic buffer (Sigma-Aldrich) supplemented with 1% protease inhibitor cocktail (Roche Diagnostics), 1% phosphatase inhibitor cocktail (EMD Millipore) and 1 mM PMSF (CST) on ice. 10-20 μg of cell lysates were separated on precast gels (Bio-Rad) and transferred on nitrocellulose membranes (Bio-Rad). After blocking for an hour in TBS-T with 2% BSA, membranes were probed with the appropriate primary antibodies listed in Table 6. Membranes were incubated with alkaline-phosphatase conjugated secondary antibodies (Invitrogen) and analyzed with Chemi Doc™ MP Imaging System (Bio-Rad). For fractionation experiment Nuclear and Cytoplasmic Extraction Reagent (Thermo Scientific) was used according to manufacturer's instructions.
# [3] = cited from earlier work; for Outcome: clinical responses / Outcome: safety: Phase 1 and 2; for safety and tolerability / PK/PD profile in clinical trials: micromolar plasma concentrations (Cmax); for Outcome: MTD: i.v.
# [4] = tested on: B-cell lymphoma cell lines; test: Drug responses (AUC) to CHIR99021 across B-cell lymphoma cell lines; type: cell-based, human; conditions: 84 B-cell lymphoma cell lines; 8q24+ n=31, 8q24- n=53; P=5.2E-07
# Text: In some embodiments, the IC50 can be calculated by using the Broad Repurposing Library and the PRISM multiplexed cell-line viability assay. Any assay or technique known in the art can be used for the calculation of the IC50 for the purposed of the present invention. The mutation data for CTNNB1, APC, AXIN1, AXIN2 and GSK3β genes were acquired from https://cancer.sanger.ac.uk/cosmic. The data for RIC staining of β-catenin was obtained from https://www.proteinatlas.org/. The RNA-seq data and mass spectrometry data for β-catenin and IKZF1 in human cancer cell lines were obtained from depmap.org/portal/download/. Data for drug-response of solid tumor cell lines to were acquired from depmap.org/portal/download/. Hallmark Myc-Targets V1 and Hallmark Myc-Targets V2 gene sets were acquired from MSigDB. RNA-seq data was deposited to GEO with the accession number GSE196767 and ChIP-seq data was deposited to GEO with accession number GSE196745. All other data are available from the corresponding author upon reasonable request.
# [5] = tested on: Human B-ALL xenograft cells (SFO5); test: Colony formation assay of B-ALL xenograft cells; type: cell-based; conditions: SFO5, lenalidomide 0.5 μM for 2 days
# Protocol: For colony forming assays, 10,000 mouse BCR-ABL1 or NRAS^G12D were grown on MethoCult medium (M3231 or M3630 (with IL-7) respectively, StemCell Technologies) in 3-cm diameter dishes with an extra dish filled with water to prevent evaporation. Colony forming assays with human leukemia/lymphoma cell lines were performed by plating 10,000 cells on MethoCult medium without human cytokines (H4230). For mouse pre-B cells 50.000 cells were grown on MethoCult medium with IL-7 (M3630). For colony forming assays assessing mouse myeloid progenitors, 10,000 cells were grown on MethoCult medium with mouse SCF, IL-3, IL-6, EPO (M3434). For human cord-blood derived colonies, 1000 CD34^+ HSCs were plated on MethoCult medium with recombinant human SCF, IL-3, IL-6, EPO, G-CSF, GM-CSF (H4435). For all colony forming experiments, colonies were imaged and counted using GelCount (Oxford Optronix) and 7-14 days after plating.
# [6] = biological target: T1, Stat5, mouse; test: co-IP with anti-β-catenin antibody and Western blot, murine B-ALL cells (FIG. 4B)
# Protocol: Co-immunoprecipitation experiments were performed using Pierce Crosslink Magnetic IP/Co-IP kit according to manufacturer's instructions (Thermo Scientific).
Molecule,selective cell death / drug response [1],β-catenin accumulation and MYC suppression [2],Outcome: clinical responses [3],safety and tolerability / PK/PD profile in clinical trials [3],further results
O=C1Nc2cc(Br)ccc2/C1=C1/Nc2ccccc2/C1=N\O [6-Bromoindirubin-3′-oxime],induced cell death at low nanomolar concentrations selectively in B-lymphoid but not myeloid and epithelial cells,induced massive accumulation of β-catenin in parallel with acute suppression of MYC,,,
"Cn1cc(C2=C(c3coc4ccc(F)cc34)C(=O)NC2=O)c2cc3c(cc21)OCO3 [9-ING-41, Elraglusib]",broad non-specific toxicity across all cell types tested,failure to induce β-catenin accumulation and MYC-suppression,No clinical response,demonstrated safety and tolerability at micromolar plasma concentrations,"Outcome: safety [3]: Phase 1 and 2, favorable safety"
N#Cc1ccc2[nH]c(O)c(-c3ccc(CN4CCOCC4)cn3)c2c1 [AZD1080],,,,demonstrated safety and tolerability at micromolar plasma concentrations,
"Cc1c[nH]c(-c2cnc(NCCNc3ccc(C#N)cn3)nc2-c2ccc(Cl)cc2Cl)n1 [CHIR99021, Laduviglusib]",,induced massive accumulation of β-catenin in parallel with acute suppression of MYC,No clinical responses,demonstrated safety and tolerability at micromolar plasma concentrations,sensitivity of B-cell lymphoma cell lines with MYC-rearrangement (8q24+) vs without [4]: substantially less sensitive; Outcome: MTD [3]: 80 mg
O=c1sn(-c2cccc3ccccc23)c(=O)n1Cc1ccccc1 [Tideglusib],no significant activity in any cell type,failure to induce β-catenin accumulation and MYC-suppression,No clinical responses,demonstrated safety and tolerability at micromolar plasma concentrations,"Outcome: safety [3]: Phase 1 and 2, favorable safety; Outcome: MTD [3]: 120 mg"
Nc1cccc2c1CN(C1CCC(=O)NC1=O)C2=O (stereo not drawn) [lenalidomide],,,,,"MYC expression under β-catenin accumulation ([2]; SFO5 cells, lenalidomide 0.5 μM with LY2090314 20 nM): relieved β-catenin-induced transcriptional repression of MYC; colony formation under β-catenin accumulation [5]: relieved β-catenin-induced transcriptional repression of MYC and suppression of colony formation"
CHIR98014,induced cell death at low nanomolar concentrations selectively in B-lymphoid but not myeloid and epithelial cells,induced massive accumulation of β-catenin in parallel with acute suppression of MYC,,,
"β-catenin (Ctnnb1), mouse (other, UniProt Q02248 2-781, looked up, Protein from lysates of BCR-ABL1-transformed Ctnnb1^ex3fl/+ murine B-ALL cells, immunoprecipitated with antibody 14/β-catenin; After Cre-ER^T2/4-OHT one allele lacks exon 3 (GSK3β phosphorylation sites), so the stabilised exon-3-deleted form and the wild type are both present) ATQADLMELDMAMEPDRKAAVSHWQQQSYLDSGIHSGATTTAPSLSGKGNPEEEDVDTSQVLYEWEQGFSQSFTQEQVADIDGQYAMTRAQRVRAAMFPETLDEGMQIPSTQFDAAHPTNVQRLAEPSQMLKHAVVNLINYQDDAELATRAIPELTKLLNDEDQVVVNKAAVMVHQLSKKEASRHAIMRSPQMVSAIVRTMQNTNDVETARCTAGTLHNLSHHREGLLAIFKSGGIPALVKMLGSPVDSVLFYAITTLHNLLLHQEGAKMAVRLAGGLQKMVALLNKTNVKFLAITTDCLQILAYGNQESKLIILASGGPQALVNIMRTYTYEKLLWTTSRVLKVLSVCSSNKPAIVEAGGMQALGLHLTDPSQRLVQNCLWTLRNLSDAATKQEGMEGLLGTLVQLLGSDDINVVTCAAGILSNLTCNNYKNKMMVCQVGGIEALVRTVLRAGDREDITEPAICALRHLTSRHQEAEMAQNAVRLHYGLPVVVKLLHPPSHWPLIKATVGLIRNLALCPANHAPLREQGAIPRLVQLLVRAHQDTQRRTSMGGTQQQFVEGVRMEEIVEGCTGALHILARDVHNRIVIRGLNTIPLFVQLLYSPIENIQRVAAGVLCELAQDKEAAEAIEAEGATAPLTELLHSRNEGVATYAAAVLFRMSEDKPQDYKKRLSVELTSSLFRTEPMAWNETADLGLDIGAQGEALGYRQDDPSYRSFHSGGYGQDALGMDPMMEHEMGGHHPGADYPVDGLPDLGHAQDLMDGLPPGDSNQLAWFDTDL",,,,,binding result [6]: no binding
